# Where two headings read alike, the source gives them in different places.
# Experiments:
# P-P70S6K (T389) = assay: Cell based AlphaLISA assay, inhibition of P-P70S6K (T389) (mTORC1 substrate phosphorylation) in MDA-MB-468 cells; conditions: Homo sapiens, 4 h, two to four hours at 37° C.
# Description: (§1) Cell Based AlphaLISA Assays for Determining IC50 for Inhibition of P-Akt (S473), P-4E-BP1 (T37/46), and P-P70S6K (T389) in MDA-MB-468 Cells
# (§2) mTOR Kinase Cellular Assay
# (§3) To measure functional activity of mTORC1 and mTORC2 in cells the phosphorylation of 4EBP1 (Thr37/46) and P70S6K (Thr389), and AKT1/2/3 (Ser473) was monitored using AlphaLisa SureFire Ultra Kits (Perkin Elmer). […] Incubations were terminated by removal of the assay buffer and addition of lysis buffer provided with the assay kit. Samples were processed according to the manufacturer's instructions. The Alpha signal from the respective phosphoproteins was measured in duplicate using a microplate reader (Envision, Perkin-Elmer or Spectramax M5, Molecular Devices). Inhibitor concentration response curves were analyzed using normalized IC50 regression curve fitting with control based normalization.
# P-Akt (S473) = assay: Cell based AlphaLISA assay, inhibition of P-Akt (S473) (mTORC2 substrate phosphorylation) in MDA-MB-468 cells; conditions: Homo sapiens, two to four hours at 37° C.
# Description: as §1, §2, §3
# P-4E-BP1 (T37/46) = assay: Cell based AlphaLISA assay, inhibition of P-4E-BP1 (T37/46) (mTORC1 substrate phosphorylation) in MDA-MB-468 cells; conditions: Homo sapiens, two to four hours at 37° C.
# Description: as §1, §2, §3
# [1] = AlphaLISA, read-out: pIC50 for Inhibition of mTORC1 and mTORC2 Substrate Phosphorylation, P-P70S6K-(T389) (converted)
# [2] = MDA-MB-468, 4 h, AlphaLISA, read-out: pIC50 for Inhibition of mTORC1 and mTORC2 Substrate Phosphorylation, p-AKT 1/2/3 -(S473) (converted)
# [3] = MDA-MB-468, 4 h, AlphaLISA, read-out: pIC50 for Inhibition of mTORC1 and mTORC2 Substrate Phosphorylation, P-4E-BP1-(T37/46) (converted)
smiles,measurement,setting,value
CO[C@H]1C[C@@H]2CC[C@@H](C)[C@@](O)(O2)C(=O)C(=O)N2CCCC[C@H]2C(=O)O[C@H]([C@H](C)C[C@@H]2CC[C@@H](OCc3cccc(-c4cnc(N5CCN(Cc6cn(CCOCCOCCOCCC(=O)NCCCCn7nc(-c8ccc9oc(N)nc9c8)c8c(N)ncnc87)nn6)CC5)nc4)c3)[C@H](OC)C2)CC(=O)[C@H](C)/C=C(\C)[C@@H](O)[C@@H](OC)C(=O)[C@H](C)C[C@H](C)/C=C/C=C/C=C/1C [Example 22],IC50,P-P70S6K (T389); [1],< 1 nM
same,IC50,P-Akt (S473); [2],3.16 to 31.6 nM
same,IC50,P-4E-BP1 (T37/46); [3],< 3.16 nM
COc1cccc2cc(-c3nc([C@H]4CC[C@H](C(=O)NCCOCCOCCNC(=O)CCOCCOCCOCCOCCn5cc(CCCCO[C@@H]6CC[C@@H](C[C@@H](C)[C@@H]7C[C@@H](OC)[C@H](C)/C=C(\C)[C@@H](O)[C@@H](OC)C(=O)[C@H](C)C[C@H](C)/C=C/C=C/C=C(\C)[C@@H](OC)C[C@@H]8CC[C@@H](C)[C@@](O)(O8)C(=O)C(=O)N8CCCC[C@H]8C(=O)O7)C[C@H]6OC)nn5)CC4)n4ncnc(N)c34)[nH]c12 [Example 188],IC50,P-P70S6K (T389); [1],< 1 nM
same,IC50,P-Akt (S473); [2],31.6 to 1000 nM
same,IC50,P-4E-BP1 (T37/46); [3],< 3.16 nM
CO[C@H]1C[C@@H]2CC[C@@H](C)[C@@](O)(O2)C(=O)C(=O)N2CCCC[C@H]2C(=O)O[C@H]([C@H](C)C[C@@H]2CC[C@H](n3cc(COC(=O)NCCOCCOCCOCCC(=O)NCCOCCOCCOCCC(=O)NCCCCn4nc(-c5ccc6oc(N)nc6c5)c5c(N)ncnc54)nn3)[C@H](OC)C2)C/C(=N/OC(C)(C)C)[C@H](C)/C=C(\C)[C@@H](O)[C@@H](OC)C(=O)[C@H](C)C[C@H](C)/C=C/C=C/C=C/1C [Example 160],IC50,P-P70S6K (T389); [1],10 to 1000 nM
same,IC50,P-Akt (S473); [2],31.6 to 1000 nM
same,IC50,P-4E-BP1 (T37/46); [3],> 1000 nM
CO[C@H]1C[C@@H]2CC[C@@H](C)[C@@](O)(O2)C(=O)C(=O)N2CCCC[C@H]2C(=O)O[C@H]([C@H](C)C[C@@H]2CC[C@H](n3cc(COC(=O)NCCOCCOCCOCCC(=O)NCCOCCOCCC(=O)NCCCCn4nc(-c5cc6cc(O)ccc6[nH]5)c5c(N)ncnc54)nn3)[C@H](OC)C2)C[C@@H](OC)[C@H](C)/C=C(\C)[C@@H](O)[C@@H](OC)C(=O)[C@H](C)C[C@H](C)/C=C/C=C/C=C/1C [Example 144],IC50,P-P70S6K (T389); [1],10 to 1000 nM
same,IC50,P-Akt (S473); [2],> 1000 nM
same,IC50,P-4E-BP1 (T37/46); [3],> 1000 nM
CO[C@H]1C[C@@H]2CC[C@@H](C)[C@@](O)(O2)C(=O)C(=O)N2CCCC[C@H]2C(=O)O[C@H]([C@H](C)C[C@@H]2CC[C@H](n3cc(CCCC(=O)NCCOCCOCCOCCOCCC(=O)NCCOCCOCCOCCOCCC(=O)NCCCCn4nc(-c5ccc6oc(N)nc6c5)c5c(N)ncnc54)nn3)[C@H](OC)C2)CC(=O)[C@H](C)/C=C(\C)[C@@H](O)[C@@H](OC)C(=O)[C@H](C)C[C@H](C)/C=C/C=C/C=C/1C [Example 134],IC50,P-P70S6K (T389); [1],1 to 10 nM
same,IC50,P-Akt (S473); [2],3.16 to 31.6 nM
same,IC50,P-4E-BP1 (T37/46); [3],3.16 to 31.6 nM
CO[C@H]1C[C@@H]2CC[C@@H](C)[C@@](O)(O2)C(=O)C(=O)N2CCCC[C@H]2C(=O)O[C@H]([C@H](C)C[C@@H]2CC[C@@H](OCCOCc3cn(CCOCCOCCOCCOCCOCCOCCC(=O)N4CC(Cn5nc(-c6ccc7oc(N)nc7c6)c6c(N)ncnc65)C4)nn3)[C@H](OC)C2)CC(=O)[C@H](C)/C=C(\C)[C@@H](O)[C@@H](OC)C(=O)[C@H](C)C[C@H](C)/C=C/C=C/C=C/1C [Example 57],IC50,P-P70S6K (T389); [1],< 1 nM
same,IC50,P-Akt (S473); [2],3.16 to 31.6 nM
same,IC50,P-4E-BP1 (T37/46); [3],< 3.16 nM
CO[C@H]1C[C@@H]2CC[C@@H](C)[C@@](O)(O2)C(=O)C(=O)N2CCCC[C@H]2C(=O)O[C@H]([C@H](C)C[C@@H]2CC[C@H](n3cc(CCCC(=O)NCCOCCOCCOCCC(=O)NCCOCCOCCOCCC(=O)NCCCCn4nc(-c5cc6cc(O)ccc6[nH]5)c5c(N)ncnc54)nn3)[C@H](OC)C2)C/C(=N/OC(C)(C)C)[C@H](C)/C=C(\C)[C@@H](O)[C@@H](OC)C(=O)[C@H](C)C[C@H](C)/C=C/C=C/C=C/1C [Example 178],IC50,P-P70S6K (T389); [1],10 to 1000 nM
same,IC50,P-Akt (S473); [2],> 1000 nM
same,IC50,P-4E-BP1 (T37/46); [3],> 1000 nM
CO[C@H]1C[C@@H]2CC[C@@H](C)[C@@](O)(O2)C(=O)C(=O)N2CCCC[C@H]2C(=O)O[C@H]([C@H](C)C[C@@H]2CC[C@H](n3cc(CCCC(=O)NCCOCCOCCOCCC(=O)NCCOCCOCCOCCC(=O)NCCCCn4nc(-c5ccc6oc(N)nc6c5)c5c(N)ncnc54)nn3)[C@H](OC)C2)C/C(=N/OCc2ccccc2)[C@H](C)/C=C(\C)[C@@H](O)[C@@H](OC)C(=O)[C@H](C)C[C@H](C)/C=C/C=C/C=C/1C [Example 174],IC50,P-P70S6K (T389); [1],10 to 1000 nM
same,IC50,P-Akt (S473); [2],> 1000 nM
same,IC50,P-4E-BP1 (T37/46); [3],> 1000 nM
CO[C@H]1C[C@@H]2CC[C@@H](C)[C@@](O)(O2)C(=O)C(=O)N2CCCC[C@H]2C(=O)O[C@H]([C@H](C)C[C@@H]2CC[C@H](n3nncc3-c3cccc(-c4cn(CCOCCOCCOCCOCCOCCOCCOCCOCCC(=O)NCCCCn5nc(-c6ccc7oc(N)nc7c6)c6c(N)ncnc65)nn4)c3)[C@H](OC)C2)CC(=O)[C@H](C)/C=C(\C)[C@@H](O)[C@@H](OC)C(=O)[C@H](C)C[C@H](C)/C=C/C=C/C=C/1C [Example 62],IC50,P-P70S6K (T389); [1],> 1000 nM
same,IC50,P-Akt (S473); [2],> 1000 nM
same,IC50,P-4E-BP1 (T37/46); [3],> 1000 nM
COc1ccc(-c2ccc3ncc4c(c3c2)n(-c2ccc(N3CCN(C(=O)CCOCCOCCOCCOCCOCCOCCOCCOCCn5cc(CCCCO[C@@H]6CC[C@@H](C[C@@H](C)[C@@H]7CC(=O)[C@H](C)/C=C(\C)[C@@H](O)[C@@H](OC)C(=O)[C@H](C)C[C@H](C)/C=C/C=C/C=C(\C)[C@@H](OC)C[C@@H]8CC[C@@H](C)[C@@](O)(O8)C(=O)C(=O)N8CCCC[C@H]8C(=O)O7)C[C@H]6OC)nn5)CC3)c(C(F)(F)F)c2)c(=O)n4C)cn1 [Example 11],IC50,P-P70S6K (T389); [1],< 1 nM
same,IC50,P-Akt (S473); [2],< 3.16 nM
same,IC50,P-4E-BP1 (T37/46); [3],< 3.16 nM
CO[C@H]1C[C@@H]2CC[C@@H](C)[C@@](O)(O2)C(=O)C(=O)N2CCCC[C@H]2C(=O)O[C@H]([C@H](C)C[C@@H]2CC[C@@H](OCCCCc3cn(CCOCCOCCOCCOCCOCCOCCOCCOCCC(=O)NCCCCn4nc(-c5cccc(C(=O)NC6=NCCS6)c5)c5c(N)ncnc54)nn3)[C@H](OC)C2)CC(=O)[C@H](C)/C=C(\C)[C@@H](O)[C@@H](OC)C(=O)[C@H](C)C[C@H](C)/C=C/C=C/C=C/1C [Example 40],IC50,P-P70S6K (T389); [1],< 1 nM
same,IC50,P-Akt (S473); [2],31.6 to 1000 nM
same,IC50,P-4E-BP1 (T37/46); [3],< 3.16 nM
CO[C@H]1C[C@@H]2CC[C@@H](C)[C@@](O)(O2)C(=O)C(=O)N2CCCC[C@H]2C(=O)O[C@H]([C@H](C)C[C@@H]2CC[C@H](n3cc(CCCC(=O)NCCOCCOCCOCCC(=O)NCCOCCOCCOCCC(=O)NCCCCn4nc(-c5cc6cc(O)ccc6[nH]5)c5c(N)ncnc54)nn3)[C@H](OC)C2)C/C(=N/OCc2ccccc2)[C@H](C)/C=C(\C)[C@@H](O)[C@@H](OC)C(=O)[C@H](C)C[C@H](C)/C=C/C=C/C=C/1C [Example 175],IC50,P-P70S6K (T389); [1],> 1000 nM
same,IC50,P-Akt (S473); [2],> 1000 nM
same,IC50,P-4E-BP1 (T37/46); [3],> 1000 nM
"CC(C)n1nc(-c2ccc3oc(N)nc3c2)c2c(N)ncnc21 [MLN-128, reference compound]",IC50,"P-P70S6K (T389); AlphaLisa SureFire Ultra, read-out: IC50 for Inhibition of mTORC1 and mTORC2 Substrate Phosphorylation, p-P70S6K-(T389)",1.4 nM
same,IC50,"P-Akt (S473); MDA-MB-468, 4 h, AlphaLisa SureFire Ultra, read-out: IC50 for Inhibition of mTORC1 and mTORC2 Substrate Phosphorylation, p-AKT1/2/3-(S473)",3.7 nM
same,IC50,"P-4E-BP1 (T37/46); MDA-MB-468, 4 h, AlphaLisa SureFire Ultra, read-out: IC50 for Inhibition of mTORC1 and mTORC2 Substrate Phosphorylation, p-4E-BP1-(T37/46)",16 nM
CO[C@H]1C[C@@H]2CC[C@@H](C)[C@@](O)(O2)C(=O)C(=O)N2CCCC[C@H]2C(=O)O[C@H]([C@H](C)C[C@@H]2CC[C@@H](OCCCCc3cn(CCOCCOCCOCCOCCOCCOCCOCCOCCC(=O)NCCCCn4nc(-c5cnc6[nH]ccc6c5)c5c(N)ncnc54)nn3)[C@H](OC)C2)CC(=O)[C@H](C)/C=C(\C)[C@@H](O)[C@@H](OC)C(=O)[C@H](C)C[C@H](C)/C=C/C=C/C=C/1C [Example 69],IC50,P-P70S6K (T389); [1],< 1 nM
same,IC50,"P-Akt (S473); 4 h, AlphaLISA, read-out: pIC50 for Inhibition of mTORC1 and mTORC2 Substrate Phosphorylation, p-AKT 1/2/3 -(S473) (converted)",3.16 to 31.6 nM
same,IC50,"P-4E-BP1 (T37/46); 4 h, AlphaLISA, read-out: pIC50 for Inhibition of mTORC1 and mTORC2 Substrate Phosphorylation, P-4E-BP1-(T37/46) (converted)",< 3.16 nM
CO[C@H]1C[C@@H]2CC[C@@H](C)[C@@](O)(O2)C(=O)C(=O)N2CCCC[C@H]2C(=O)O[C@H]([C@H](C)C[C@@H]2CC[C@H](n3cc(-c4cnc(N5CCN(c6ncc(C(=O)NCCOCCOCCOCCOCCC(=O)NCCCCn7nc(-c8cc9cc(O)ccc9[nH]8)c8c(N)ncnc87)cn6)CC5)nc4)nn3)[C@H](OC)C2)CC(=O)[C@H](C)/C=C(\C)[C@@H](O)[C@@H](OC)C(=O)[C@H](C)C[C@H](C)/C=C/C=C/C=C/1C [Example 116],IC50,P-P70S6K (T389); [1],< 1 nM
same,IC50,P-Akt (S473); [2],> 1000 nM
same,IC50,P-4E-BP1 (T37/46); [3],3.16 to 31.6 nM

# Reference: patent US20230093861A1, “RAPAMYCIN ANALOGS AS MTOR INHIBITORS” (Revolution Medicines, Inc., priority 2017, published 2023)
